Results taken from patent publication US12662469B2 (SIRONAX LTD, priority 2018, dated 2026).

What follows are molecules tested on Cell Necrosis (assay: Cell necrosis assay / cell viability assay (necrosis inhibitor activity)). Details: necrosis inhibitor activity; EC data for 14-191 extrapolated; read-out: EC50.
Format: cell-based
`COc1cccc(C=C2CN(C(=O)N3N=CCC3c3ccccc3)C2)c1` (stereo not shown) [Compound 43, (3-(3-methoxybenzylidene)azetidin-1-yl)(5-phenyl-4,5-dihydro-1H-pyrazol-1-yl)methanone] was tested, and the EC50 was 0.001 to 1 µM. `O=C(N1CC(Cc2cccc(O)c2)C1)N1N=CCC1c1ccccc1` (stereo not shown) [Compound 44, (3-(3-hydroxybenzyl)azetidin-1-yl)(5-phenyl-4,5-dihydro-1H-pyrazol-1-yl)methanone] gave an EC50 of 1 to 10 µM. In the case of `O=C(N1CC(=Cc2cccc(F)c2)C1)N1N=CCC1c1ccccc1` (stereo not shown) [Compound 45, (3-(3-fluorobenzylidene)azetidin-1-yl)(5-phenyl-4,5-dihydro-1H-pyrazol-1-yl)methanone], the EC50 is reported as 0.001 to 1 µM. Work on `O=C(N1CC(=Cc2ccc(F)cc2)C1)N1N=CCC1c1ccccc1` (stereo not shown) [Compound 46, (3-(4-fluorobenzylidene)azetidin-1-yl)(5-phenyl-4,5-dihydro-1H-pyrazol-1-yl)methanone] yielded an EC50 of 0.001 to 1 µM. With `O=C(N1CC(Cc2ccccc2Cl)C1)N1N=CCC1c1ccccc1` (stereo not shown) [Compound 47, (3-(2-chlorobenzyl)azetidin-1-yl)(5-phenyl-4,5-dihydro-1H-pyrazol-1-yl)methanone] the EC50 was 0.001 to 1 µM. Work on `O=C(N1CC(Cc2cccc(Cl)c2)C1)N1N=CCC1c1ccccc1` (stereo not shown) [Compound 48, (3-(3-chlorobenzyl)azetidin-1-yl)(5-phenyl-4,5-dihydro-1H-pyrazol-1-yl)methanone] yielded an EC50 of 0.001 to 1 µM. For `O=C(N1CC(Cc2ccc(Cl)cc2)C1)N1N=CCC1c1ccccc1` (stereo not shown) [Compound 49, (3-(4-chlorobenzyl)azetidin-1-yl)(5-phenyl-4,5-dihydro-1H-pyrazol-1-yl)methanone], the EC50 was 0.001 to 1 µM. Work on `O=C(N1CC(Cc2ccc(F)cc2F)C1)N1N=CCC1c1ccccc1` (stereo not shown) [Compound 50, (3-(2,4-difluorobenzyl)azetidin-1-yl)(5-phenyl-4,5-dihydro-1H-pyrazol-1-yl)methanone] yielded an EC50 of 0.001 to 1 µM. `O=C(N1CC(Cc2ccc(Cl)cc2F)C1)N1N=CCC1c1ccccc1` (stereo not shown) [Compound 51, (3-(4-chlor-2-fluorobenzyl)azetidin-1-yl)(5-phenyl-4,5-dihydro-1H-pyrazol-1-yl)methanone] gave an EC50 of 0.001 to 1 µM. `O=C(N1CC(Cc2ccc(F)cc2Cl)C1)N1N=CCC1c1ccccc1` (stereo not shown) [Compound 52, (3-(2-chloro-4-fluorobenzyl)azetidin-1-yl)(5-phenyl-4,5-dihydro-1H-pyrazol-1-yl)methanone] gave an EC50 of 0.001 to 1 µM. With `O=C(N1CC(Cc2ccc(F)cc2F)C1)N1N=CCC1c1cccc(F)c1` (stereo not shown) [Compound 53, (3-(2,4-difluorobenzyl)azetidin-1-yl)(5-(3-fluorophenyl)-4,5-dihydro-1H-pyrazol-1-yl)methanone] the EC50 was 0.001 to 1 µM. For `O=C(N1CC(Cc2ccc(F)cc2F)C1)N1N=CCC1c1cc(F)cc(F)c1` (stereo not shown) [Compound 54, (3-(2,4-difluorobenzyl)azetidin-1-yl)(5-(3,5-difluorophenyl)-4,5-dihydro-1H-pyrazol-1-yl)methanone], the EC50 was 0.001 to 1 µM. `O=C(N1CC(=Cc2ccc(F)cc2F)C1)N1N=CCC1c1cc(F)cc(F)c1` (stereo not shown) [Compound 55, (3-(2,4-difluorobenzylidene)azetidin-1-yl)(5-(3,5-difluorophenyl)-4,5-dihydro-1H-pyrazol-1-yl)methanone] showed an EC50 of 0.001 to 1 µM. `O=C(N1CC(=Cc2ccccc2F)C1)N1N=CCC1c1cc(F)cc(F)c1` (stereo not shown) [Compound 56, (5-(3,5-difluorophenyl)-4,5-dihydro-1H-pyrazol-1-yl)(3-(2-fluorobenzylidene)azetidin-1-yl)methanone] gave an EC50 of 0.001 to 1 µM. Work on `O=C(N1CC(=Cc2ccc(F)cc2)C1)N1N=CCC1c1cc(F)cc(F)c1` (stereo not shown) [Compound 57, (5-(3,5-difluorophenyl)-4,5-dihydro-1H-pyrazol-1-yl)(3-(4-fluorobenzylidene)azetidin-1-yl)methanone] yielded an EC50 of 0.001 to 1 µM. In the case of `O=C(N1CC/C(=C/c2ccccc2)C1)N1N=CCC1c1ccccc1` (stereo not shown) [Compound 58, (Z)-(3-benzylidenepyrrolidin-1-yl)(5-phenyl-4,5-dihydro-1H-pyrazol-1-yl)methanone], the EC50 is reported as 0.001 to 1 µM. `O=C(N1CC(Oc2ccccc2)C1)N1N=CCC1c1ccccc1` (stereo not shown) [Compound 59] was tested, and the EC50 was 0.001 to 1 µM. Molecule `O=C(N1CC(Oc2ccccc2F)C1)N1N=CCC1c1ccccc1` (stereo not shown) [Compound 60, (3-(2-fluorophenoxy)azetidin-1-yl)(5-phenyl-4,5-dihydro-1H-pyrazol-1-yl)methanone] has an EC50 of 0.001 to 1 µM. Work on `O=C(N1CC(Oc2cccc(F)c2)C1)N1N=CCC1c1ccccc1` (stereo not shown) [Compound 61, (3-(3-fluorophenoxy)azetidin-1-yl)(5-phenyl-4,5-dihydro-1H-pyrazol-1-yl)methanone] yielded an EC50 of 0.001 to 1 µM. `O=C(N1CC(Oc2ccc(F)cc2)C1)N1N=CCC1c1ccccc1` (stereo not shown) [Compound 62, (3-(4-fluorophenoxy)azetidin-1-yl)(5-phenyl-4,5-dihydro-1H-pyrazol-1-yl)methanone] showed an EC50 of 0.001 to 1 µM. `O=C(N1CC(Oc2ccc(F)cc2F)C1)N1N=CCC1c1ccccc1` (stereo not shown) [Compound 63, (3-(2,4-difluorophenoxy)azetidin-1-yl)(5-phenyl-4,5-dihydro-1H-pyrazol-1-yl)methanone] showed an EC50 of 0.001 to 1 µM. `O=C(N1CC(Oc2ccccc2Cl)C1)N1N=CCC1c1ccccc1` (stereo not shown) [Compound 64, (3-(2-chlorophenoxy)azetidin-1-yl)(5-phenyl-4,5-dihydro-1H-pyrazol-1-yl)methanone] gave an EC50 of 0.001 to 1 µM. For `O=C(N1CC(Oc2ccc(Cl)cc2)C1)N1N=CCC1c1ccccc1` (stereo not shown) [Compound 65, (3-(4-chlorophenoxy)azetidin-1-yl)(5-phenyl-4,5-dihydro-1H-pyrazol-1-yl)methanone], the EC50 was 0.001 to 1 µM. Work on `O=C(N1CC(Oc2ccc(F)c(F)c2)C1)N1N=CCC1c1ccccc1` (stereo not shown) [Compound 66, (3-(3,4-difluorophenoxy)azetidin-1-yl)(5-phenyl-4,5-dihydro-1H-pyrazol-1-yl)methanone] yielded an EC50 of 0.001 to 1 µM. `O=C(N1CC(Oc2ccc(F)cc2Cl)C1)N1N=CCC1c1ccccc1` (stereo not shown) [Compound 67, (3-(2-chloro-4-fluorophenoxy)azetidin-1-yl)(5-phenyl-4,5-dihydro-1H-pyrazol-1-yl)methanone] was tested, and the EC50 was 0.001 to 1 µM. With `O=C(N1CC(Oc2ccc(O)cc2)C1)N1N=CCC1c1ccccc1` (stereo not shown) [Compound 70, (3-(4-hydroxyphenoxy)azetidin-1-yl)(5-phenyl-4,5-dihydro-1H-pyrazol-1-yl)methanone] the EC50 was 1 to 10 µM. For `N#Cc1cccc(OC2CN(C(=O)N3N=CCC3c3cc(F)cc(F)c3)C2)c1` (stereo not shown) [Compound 71, 3-((1-(5-(3,5-difluorophenyl)-4,5-dihydro-1H-pyrazole-1-carbonyl)azetidin-3-yl)oxy)benzonitrile], the EC50 was 0.001 to 1 µM. In the case of `O=C(N1CC(Oc2ccc(F)cn2)C1)N1N=CCC1c1ccccc1` (stereo not shown) [Compound 72, (3-((5-fluoropyridin-2-yl)oxy)azetidin-1-yl)(5-phenyl-4,5-dihydro-1H-pyrazol-1-yl)methanone], the EC50 is reported as 0.001 to 1 µM. `O=C(N1CC(Oc2ccc(F)nc2)C1)N1N=CCC1c1ccccc1` (stereo not shown) [Compound 73, (3-((6-fluoropyridin-3-yl)oxy)azetidin-1-yl)(5-phenyl-4,5-dihydro-1H-pyrazol-1-yl)methanone] gave an EC50 of 0.001 to 1 µM. With `O=C(N1CC(Oc2cccnc2)C1)N1N=CCC1c1ccccc1` (stereo not shown) [Compound 74, (5-phenyl-4,5-dihydro-1H-pyrazol-1-yl)(3-(pyridin-3-yloxy)azetidin-1-yl)methanone] the EC50 was 0.001 to 1 µM. `O=C(N1CC(Oc2ccc(F)cc2F)C1)N1N=CCC1c1cccc(F)c1` (stereo not shown) [Compound 75, (3-(2,4-difluorophenoxy)azetidin-1-yl)(5-(3-fluorophenyl)-4,5-dihydro-1H-pyrazol-1-yl)methanone] showed an EC50 of 0.001 to 1 µM. `O=C(N1CC(Oc2ccccc2F)C1)N1OCC[C@H]1c1ccccc1` [Compound 77, (S)-(3-(2-fluorophenoxy)azetidin-1-yl)(3-phenylisoxazolidin-2-yl)methanone] showed an EC50 of 0.001 to 1 µM. `O=C(N1CC(Cc2ccc(F)cc2)C1)N1OCC[C@H]1c1ccccc1` [Compound 79, (S)-(3-(4-fluorobenzyl)azetidin-1-yl)(3-phenylisoxazolidin-2-yl)methanone] was tested, and the EC50 was 0.001 to 1 µM. `O=C(N1CCN(c2ncc(F)cn2)CC1)N1OCC[C@H]1c1ccccc1` [Compound 81, (S)-(4-(5-fluoropyrimidin-2-yl)piperazin-1-yl)(3-phenylisoxazolidin-2-yl)methanone] gave an EC50 of 0.001 to 1 µM. For `O=C(N1CC(Cc2ccc(F)cc2F)C1)N1OCC[C@H]1c1ccccc1` [Compound 82, (S)-(3-(2,4-difluorobenzyl)azetidin-1-yl)(3-phenylisoxazolidin-2-yl)methanone], the EC50 was 0.001 to 1 µM. Work on `O=C(N1CCN(c2ncc(F)cn2)CC1)N1N=CCC1c1ccccc1` (stereo not shown) [Compound 83, (4-(5-fluoropyrimidin-2-yl)piperazin-1-yl)(5-phenyl-4,5-dihydro-1H-pyrazol-1-yl)methanone] yielded an EC50 of 0.001 to 1 µM. `O=C(N1CCN(c2ncccn2)CC1)N1N=CCC1c1ccccc1` (stereo not shown) [Compound 84, (5-phenyl-4,5-dihydro-1H-pyrazol-1-yl)(4-(pyrimidin-2-yl)piperazin-1-yl)methanone] was tested, and the EC50 was 0.001 to 1 µM. `O=C(N1CCN(c2ccc(F)cn2)CC1)N1N=CCC1c1ccccc1` (stereo not shown) [Compound 85, (4-(5-fluoropyridin-2-yl)piperazin-1-yl)(5-phenyl-4,5-dihydro-1H-pyrazol-1-yl)methanone] showed an EC50 of 0.001 to 1 µM. `O=C(N1CCN(c2cnccn2)CC1)N1N=CCC1c1ccccc1` (stereo not shown) [Compound 86, (5-phenyl-4,5-dihydro-1H-pyrazol-1-yl)(4-(pyrazin-2-yl)piperazin-1-yl)methanone] showed an EC50 of 0.001 to 1 µM. `Cc1cnc(N2CCN(C(=O)N3N=CCC3c3ccccc3)CC2)nc1` (stereo not shown) [Compound 87, (4-(5-methylpyrimidin-2-yl)piperazin-1-yl)(5-phenyl-4,5-dihydro-1H-pyrazol-1-yl)methanone] was tested, and the EC50 was 0.001 to 1 µM. `O=C(N1CCN(c2ncc(Cl)cn2)CC1)N1N=CCC1c1ccccc1` (stereo not shown) [Compound 88, (4-(5-chloropyrimidin-2-yl)piperazin-1-yl)(5-phenyl-4,5-dihydro-1H-pyrazol-1-yl)methanone] gave an EC50 of 0.001 to 1 µM. For `O=C(N1CCN(c2cccnn2)CC1)N1N=CCC1c1ccccc1` (stereo not shown) [Compound 89, (5-phenyl-4,5-dihydro-1H-pyrazol-1-yl)(4-(pyridazin-3-yl)piperazin-1-yl)methanone], the EC50 was 1 to 10 µM. For `O=C(N1CCN(c2ccncn2)CC1)N1N=CCC1c1ccccc1` (stereo not shown) [Compound 90, (5-phenyl-4,5-dihydro-1H-pyrazol-1-yl)(4-(pyrimidin-4-yl)piperazin-1-yl)methanone], the EC50 was 1 to 10 µM.
